Experimental data: PubChem BioAssay AID342 (DTP/NCI, 2004)
“And” between values parts separate entries of the source, which are not always exact repeats. Equal values may be shown once.

System: Swiss mice, Sarcoma 180 sc, mean tumor weight T/C
Test: NCI In Vivo Anticancer Drug Screen. Data for tumor model Sarcoma 180 (subcutaneous) in Swiss mice
Conditions: endpoint: mean tumor weight, higher = larger tumour
Outline: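 Tumor-bearing mice, transplantable tumor; readout survival or tumor size; result = T/C, treated vs vehicle control.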

SMILES: CC(=O)[C@@]1(O)CC[C@H]2[C@@H]3C[C@H](C)C4=CC(=O)C=C[C@]4(C)[C@@]3(F)[C@@H](O)C[C@@]21C
- T/C (dose: 6.9 mg/kg/injection, schedule: Q01DX007 (sc), vehicle: steriod suspending solution): 102 % of control
- T/C (dose: 16.0 mg/kg/injection, schedule: Q01DX007 (sc), vehicle: steriod suspending solution): 76 % of control
- T/C (dose: 17.0 mg/kg/injection, schedule: Q01DX007 (sc), vehicle: steriod suspending solution): 60 % of control
- T/C (dose: 24.0 mg/kg/injection, schedule: Q01DX007 (sc), vehicle: steriod suspending solution): 78 % of control
- T/C (dose: 26.0 mg/kg/injection, schedule: Q01DX007 (sc), vehicle: steriod suspending solution): 19 % of control and 23 % of control
- T/C (dose: 27.5 mg/kg/injection, schedule: Q01DX007 (sc), vehicle: steriod suspending solution): 65 % of control
- T/C (dose: 27.5 mg/kg/injection, schedule: Q#A X014 (sc), vehicle: steriod suspending solution): 33 % of control
- T/C (dose: 36.5 mg/kg/injection, schedule: Q01DX007 (sc), vehicle: steriod suspending solution): 57 % of control
- T/C (dose: 40.0 mg/kg/injection, schedule: Q01DX007 (sc), vehicle: steriod suspending solution): 17 % of control and 23 % of control and 36 % of control
- T/C (dose: 41.5 mg/kg/injection, schedule: Q#A X014 (sc), vehicle: steriod suspending solution): 40 % of control
- T/C (dose: 60.0 mg/kg/injection, schedule: Q01DX007 (sc), vehicle: steriod suspending solution): 29 % of control
- T/C (dose: 62.5 mg/kg/injection, schedule: Q#A X014 (sc), vehicle: steriod suspending solution): 34 % of control and 45 % of control
- T/C (dose: 83.0 mg/kg/injection, schedule: Q01DX007 (sc), vehicle: steriod suspending solution): 38 % of control
- T/C (dose: 85.0 mg/kg/injection, schedule: Q01DX007 (sc), vehicle: steriod suspending solution): 34 % of control
- T/C (dose: 90.0 mg/kg/injection, schedule: Q01DX007 (sc), vehicle: steriod suspending solution): 18 % of control
- T/C (dose: 125.0 mg/kg/injection, schedule: Q01DX007 (sc), vehicle: steriod suspending solution): 17 % of control
- T/C (dose: 135.0 mg/kg/injection, schedule: Q01DX007 (sc), vehicle: steriod suspending solution): 19 % of control
- T/C (dose: 188.0 mg/kg/injection, schedule: Q01DX007 (sc), vehicle: steriod suspending solution): 46 % of control
- T/C (dose: 282.0 mg/kg/injection, schedule: Q01DX007 (sc), vehicle: steriod suspending solution): 25 % of control and 26 % of control
- T/C (dose: 300.0 mg/kg/injection, schedule: Q01DX007 (sc), vehicle: steriod suspending solution): 34 % of control
- T/C (dose: 423.0 mg/kg/injection, schedule: Q01DX007 (sc), vehicle: steriod suspending solution): 20 % of control and 39 % of control
- T/C (dose: 500.0 mg/kg/injection, schedule: Q01DX007 (sc), vehicle: steriod suspending solution): 3 % of control
- T/C (dose: 600.0 mg/kg/injection, schedule: Q01DX007 (sc), vehicle: steriod suspending solution): 30 % of control
- T/C (dose: 630.0 mg/kg/injection, schedule: Q01DX007 (sc), vehicle: steriod suspending solution): 15 % of control
- T/C (dose: 900.0 mg/kg/injection, schedule: Q01DX007 (sc), vehicle: steriod suspending solution): 27 % of control
- T/C (dose: 945.0 mg/kg/injection, schedule: Q01DX007 (sc), vehicle: steriod suspending solution): 22 % of control
- T/C (dose: 1400.0 mg/kg/injection, schedule: Q01DX007 (sc), vehicle: steriod suspending solution): 14 % of control

SMILES: CCC1=C(c2cc(Cl)c3ccccc3c2OCC(=O)O)OC(CC)(C(=O)c2cc(Cl)c3ccccc3c2OCC(=O)O)CC1 (stereo unspecified)
- T/C (dose: 2.0 mg/kg/injection, schedule: Q01DX007 (ip), vehicle: other): 110 % of control
- T/C (dose: 4.0 mg/kg/injection, schedule: Q01DX007 (ip), vehicle: other): 120 % of control
- T/C (dose: 8.0 mg/kg/injection, schedule: Q01DX007 (ip), vehicle: other): 90 % of control
- T/C (dose: 16.0 mg/kg/injection, schedule: Q01DX007 (ip), vehicle: other): 112 % of control
- T/C (dose: 75.0 mg/kg/injection, schedule: Q01DX007 (ip), vehicle: other): 95 % of control
- T/C (dose: 111.0 mg/kg/injection, schedule: Q01DX007 (ip), vehicle: other): 49 % of control

SMILES: C[C@]12CCC(=O)C=C1CC[C@H]1[C@@H]3CC[C@](O)(C(=O)CF)[C@@]3(C)C[C@H](O)[C@@]12F
- T/C (dose: 20.5 mg/kg/injection, schedule: Q#A X014 (sc), vehicle: steriod suspending solution): 54 % of control
- T/C (dose: 31.0 mg/kg/injection, schedule: Q#A X014 (sc), vehicle: steriod suspending solution): 62 % of control
- T/C (dose: 46.5 mg/kg/injection, schedule: Q#A X014 (sc), vehicle: steriod suspending solution): 48 % of control

SMILES: O=C(O)C(=O)O.O=C([O-])C(=O)O.O=C([O-])C(=O)O.O=C([O-])C(=O)[O-].[K+].[U]
- T/C (dose: 7.5 mg/kg/injection, schedule: Q#A X014 (ip), vehicle: saline): 51 % of control and 59 % of control
- T/C (dose: 11.25 mg/kg/injection, schedule: Q#A X014 (ip), vehicle: saline): 21 % of control

SMILES: CC(=O)[C@H]1CC[C@H]2[C@@H]3C[C@H](C)C4=CC(=O)CC[C@]4(C)[C@H]3C(=O)C[C@]12C
- T/C (dose: 25.0 mg/kg/injection, schedule: Q#A X014 (oral), vehicle: steriod suspending solution): 72 % of control
- T/C (dose: 62.5 mg/kg/injection, schedule: Q#A X014 (oral), vehicle: steriod suspending solution): 55 % of control
- T/C (dose: 110.0 mg/kg/injection, schedule: Q#A X014 (oral), vehicle: steriod suspending solution): 86 % of control
